The values that follow come from US20050065213A1 (priority 2001, published 2005).

The subject of data set [1] is tubulin. Nature of the data set: Tubulin assembly inhibition assay. It counts as biochemical.
Data set [2] has as its system tubulin. Description: Colchicine competition assay. Format: binding. The source says: The compounds have been further tested for their performance in colchicine competition assays, and the results tabulated in Tables 9 to 13.
Another data set concerns K562 cell line. Description: Cytotoxicity (IC50) assay against the K562 cell line. Format: cell-based. The settings on record: for activity (in words): cytotoxicity, qualitative statements; for IC50: Homo sapiens, K562 cell line, read-out: IC50 values in the cytotoxicity tests. As for the experimental part: Compounds based on the aurone structure were prepared as conformationally restricted analogues of the chalcones. They were prepared from the appropriate benzofuranone.

A short description of data set [3]: Flow cytometry, percentage of cells in the phases of the cell cycle. Format: cell-based. The settings on record: for % Cells G2-M: control 12.08; for % Cells S-phase: control 32.87; for % Cells G0-G1: control 55.05. From the text:
Tables 14 and 15 show the results of tubulin assembly assays and flow cytometry studies on selected compounds of the present invention.
(In flow cytometry, cells or beads pass a laser one at a time.)

The subject of data set [4] is P388 murine leukaemia cell line. To be noted: cell line not stated for this statement; cited from earlier work.
The subject of data set [5] is H460 human non small cell lung cells. Description: H460 xenograft in nude mice. It counts as in vivo.
In a further data set the test system is H460 xenograft. Nature of the data set: H460 xenograft mice, X-Rays plus drug. It counts as in vivo. The settings on record: X-Ray plus drug treated group, FIG. 6. From the text: Whilst X-Ray treatment was effective immediately after treatment, fresh tumour growth became evident by 36 days.
Setting [6] is: tubulin assembly, corrected values scaled by a factor of 5, read-out: IC50 μM (corrected).
Setting [7] is: tubulin assembly, original experimental value, read-out: IC50 μM (original).
Setting [8] is: tubulin assembly assay, Table 14, read-out: IC(TA)50.

Where two headings read alike, the source gives them in different places.

For orientation: melting point means the temperature of the solid-liquid transition. `COc1ccc(-c2cc(=O)c3cc(OC)c(OC)c(OC)c3o2)cc1O` [DR36, 2-(3′-Hydroxy-4′-methoxyphenyl)-6,7,8-trimethoxy-4H-chromen-4-one]: the melting point was 199 to 200 °C. The IC50 in the data set on tubulin [1] (setting [6]) was more than 100 µM. Besides, the IC50 with tubulin [1] (setting [7]) is 25 µM. Also, in the data set on tubulin [2], the “Colchicine competition, Drug:Protein Ratio 1:1” value came out at 100 and the “Colchicine competition, Drug:Protein Ratio 10:1” value is 43.
As for `COc1ccc(/C=C/C(=O)c2cc(OC)c(OC)c(OC)c2)cc1OP(=O)([O-])[O-].[Na+].[Na+]` [SD174a, Disodium 3′-phosphate salt of (E)-1-(3′-Hydroxy-4′-methoxyphenyl)-3-(3″,4″,5″-trimethoxyphenyl)prop-1-en-3-one], the “activity (in words)” value in the data set with K562 cell line is on record as “potently active”.
For the molecule `COc1ccc(/C=C\c2cc(OC)c(OC)c(OC)c2)cc1O` [combretastatin A-4, cis-combretastatin A-4, reference compound], the IC50 with tubulin [1] (setting [6]) turned out to be […]; in the data set with tubulin [1] (setting [7]), […].
`COc1ccc(C=C2Oc3c(cc(OC)c(OC)c3OC)C2=O)cc1F` [DR28]: the IC50 in the data set with tubulin [1] (setting [6]) was more than 100 µM; in the data set on tubulin [1] (setting [7]) it was more than 50 µM; in the data set on K562 cell line, 0.11 µM.
`COc1ccc(C2CCc3cc(OC)c(OC)c(OC)c32)cc1N` (stereo not drawn) [MW82]: in the data set on tubulin [1] (setting [8]), the IC50 is more than 10 µM. Moreover, in data set [3], the “% Cells Debris” value was found to be 18.58%, the “% Cells G2-M” value worked out at 23.34%, the “% Cells S-phase” value was 36.26% and the “% Cells G0-G1” value worked out at 40.40%.
Regarding `COc1ccc(C2CC(O)c3cc(OC)c(OC)c(OC)c32)cc1F` (stereo not drawn) [DR60], the IC50 with tubulin [1] (setting [6]) is more than 100 µM; with tubulin [1] (setting [7]), more than 50 µM.
Take `COc1ccc(/C=C2\Oc3c(cc(OC)c(OC)c3OC)C2=O)cc1O` [DR27, 2-[(Z)-(3′-Hydroxy-4′-methoxyphenyl)methylidene]-5,6,7-trimethoxy-1-benzofuran-3-one]: the melting point was 192 to 193 °C. The IC50 with tubulin [1] (setting [6]) is more than 100 µM. For the same molecule, the IC50 with tubulin [1] (setting [7]) was found to be 22 µM. For the same molecule, in the data set with tubulin [2], the “Colchicine competition, Drug:Protein Ratio 1:1” value turned out to be 78 and the “Colchicine competition, Drug:Protein Ratio 10:1” value is 59. For the same molecule, in the data set with K562 cell line, the IC50 stood at 0.05 µM.
As to `COc1cc(C(=O)/C(C)=C/c2cc(F)c(OC)c(F)c2)cc(OC)c1OC` [DR6, (E)-3-(3″, 5″-Difluoro-4″-methoxyphenyl)-2-methyl-1-(3′, 4′,5′-trimethoxyphenyl)-2-propen-1-one], in the data set on tubulin [1] (setting [6]), the IC50 was 12 µM. For the same molecule, the IC50 in the data set on tubulin [1] (setting [7]) amounted to 2.4 µM. In the data set on tubulin [2], the “Colchicine competition, Drug:Protein Ratio 1:1” value came out at 33 and the “Colchicine competition, Drug:Protein Ratio 10:1” value was 25.
In the case of `COc1ccc(C2CC(=O)c3cc(OC)c(OC)c(OC)c32)cc1N` (stereo not drawn) [MW74, 3-(3′-Amino-4′-methoxyphenyl)-4,5,6-trimethoxy-1-indanone], the IC50 in the data set on tubulin [1] (setting [8]) was approximately 10 µM. Moreover, in data set [3], the “% Cells Debris” value was determined as 12.72%, the “% Cells G2-M” value was 29.10%, the “% Cells S-phase” value is 33.76% and the “% Cells G0-G1” value is reported as 37.14%.
For the molecule `COc1ccc(/C=C/c2cc(OC)c(OC)c(OC)c2)cc1O` [trans-combretastatin A-4], the “cell growth inhibition (in words)” value in data set [4] is given as “μM range”.
On to `CO/C(=C\c1ccc(OC)c(F)c1)C(=O)c1cc(OC)c(OC)c(OC)c1` [DR14, (Z)-3-(3″-Fluoro-4″-methoxyphenyl)-2-methoxy-1-(3′,4′,5′-trimethoxyphenyl)-2-propen-1-one], for which the melting point is 110 to 112 °C. Moreover, the IC50 in the data set with tubulin [1] (setting [6]) amounted to 2.4 µM. Further, the IC50 with tubulin [1] (setting [7]) stood at 0.47 µM. In the data set with tubulin [2], the “Colchicine competition, Drug:Protein Ratio 1:1” value amounted to 22 and the “Colchicine competition, Drug:Protein Ratio 10:1” value is listed as 8.
Take `COc1cc2c(c(OC)c1OC)OC(=Cc1ccc(O)c(O)c1)C2=O` [DR31]: the IC50 in the data set with tubulin [1] (setting [6]) is more than 100 µM; in the data set with tubulin [1] (setting [7]), more than 50 µM.
Turning to `COc1ccc(/C=C(\C)C(=O)c2cc(OC)c(OC)c(OC)c2)cc1[N+](=O)[O-]` [MW68], the IC50 in the data set on tubulin [1] (setting [8]) was more than 10 µM. In data set [3], the “% Cells Debris” value turned out to be 11.27%, the “% Cells G2-M” value was 28.29%, the “% Cells S-phase” value came out at 35.36% and the “% Cells G0-G1” value turned out to be 36.35%.
Take `COc1ccc(/C=C(\C)C(=O)c2cc(OC)c(OC)c(OC)c2)cc1OP(=O)([O-])[O-].[Na+].[Na+]` [SD174b, Disodium 3′-phosphate salt of (E)-1-(3′-Hydroxy-4′-methoxyphenyl)-2-methyl-3-(3″,4″,5″-trimethoxyphenyl)prop-1-en-3-one]: in the data set on K562 cell line, the “activity (in words)” value is reported as “potently active”.
For the molecule `COc1ccc(/C=C(\C)C(=O)c2cc(OC)c(OC)c(OC)c2)cc1F` [DR5, (E)-3-(3″-Fluoro-4″-methoxyphenyl)-2-methyl-1-(3′,4′,5′-trimethoxyphenyl)-2-propen-1-one], the IC50 with tubulin [1] (setting [6]) worked out at 3.5 µM; with tubulin [1] (setting [7]), 0.7 µM. The “Colchicine competition, Drug:Protein Ratio 1:1” value in the data set with tubulin [2] was 14. Further, in the data set on tubulin [2], the “Colchicine competition, Drug:Protein Ratio 10:1” value came to 6. Also, the “activity (in words)” value in the data set on K562 cell line is on record as “most active fluorinated analogue”. The necrosis in tumour entry in data set [5] (24 hours after treatment with 0.75 MTD) is on record as “necrosis in H460 cancer cells”. In data set [5] (H460 xenograft nude mice), the “adverse side effects on healthy surrounding tissue” value is listed as “no adverse side effects on healthy surrounding tissue”. For the same molecule, the “tumour volume / potency with concomitant X-Rays” value in the data set on H460 xenograft was “some initial increase in tumour volume between days 27 and 32, though this was followed by subsequent decrease to a steady baseline at day 34”; with H460 xenograft (listed as DRA 212), “Further improvement in the potency”.
As to `COc1ccc(/C=C/C(=O)c2cc(OC)c(OC)c(OC)c2)cc1N` [MW65, (E)-3-(3″-Amino-4″-methoxyphenyl)-1-(3′,4′,5′-trimethoxyphenyl)-2-propen-1-one], the melting point lay in the range of 90 to 91 °C. In data set [3], the “% Cells Debris” value is 14.10%, the “% Cells G2-M” value was 18.52%, the “% Cells S-phase” value was found to be 33.18% and the “% Cells G0-G1” value is 48.30%.
With `COc1ccc(-c2cc(=O)c3c(OC)c(OC)c(OC)cc3o2)cc1O` [DR33, 2-(3′-Hydroxy-4′-methoxyphenyl)-5,6,7-trimethoxy-4H-chromen-4-one], the IC50 is more than 100 µM in the data set with tubulin [1] (setting [6]) and more than 50 µM in the data set on tubulin [1] (setting [7]).
For the molecule `COc1ccc(C=C2Oc3cc(OC)c(OC)c(OC)c3C2=O)cc1F` [DR24], the IC50 is more than 100 µM with tubulin [1] (setting [6]) and more than 50 µM with tubulin [1] (setting [7]).
`CO/C(=C\c1cc(F)c(OC)c(F)c1)C(=O)c1cc(OC)c(OC)c(OC)c1` [DR15, (Z)-3-(3″,5″-Difluoro-4″-methoxyphenyl)-2-methoxy-1-(3′,4′,5′-trimethoxyphenyl)-2-propen-1-one]: the IC50 stood at 8.5 µM in the data set on tubulin [1] (setting [6]) and 1.7 µM with tubulin [1] (setting [7]). The “Colchicine competition, Drug:Protein Ratio 1:1” value in the data set with tubulin [2] stood at 59. Moreover, the “Colchicine competition, Drug:Protein Ratio 10:1” value with tubulin [2] was determined as 41.
Regarding `COc1ccc(CC(C)C(=O)c2cc(OC)c(OC)c(OC)c2)cc1O` (stereo not drawn) [MW71], the IC50 in the data set on tubulin [1] (setting [8]) came out at 4 µM. In data set [3], the “% Cells Debris” value worked out at 19.31%, the “% Cells G2-M” value turned out to be 28.08%, the “% Cells S-phase” value is given as 36.09% and the “% Cells G0-G1” value turned out to be 35.84%.
In the case of `COc1ccc(C=C2Oc3cc(OC)c(OC)c(OC)c3C2=O)cc1O` [DR23], the IC50 in the data set with tubulin [1] (setting [6]) was more than 100 µM; in the data set on tubulin [1] (setting [7]) it was more than 50 µM.
As for `COc1ccc(/C=C(\C)C(O)c2cc(OC)c(OC)c(OC)c2)cc1O` (stereo not drawn) [MW70], the IC50 in the data set with tubulin [1] (setting [8]) was more than 10 µM. In data set [3], the “% Cells Debris” value stood at 15.27%, the “% Cells G2-M” value turned out to be 23.70%, the “% Cells S-phase” value is listed as 32.80% and the “% Cells G0-G1” value was determined as 43.50%.
For `COc1ccc(C2CC(=O)c3cc(OC)c(OC)c(OC)c32)cc1F` (stereo not drawn) [DR59], the IC50 with tubulin [1] (setting [6]) amounted to 20 µM. Moreover, the IC50 with tubulin [1] (setting [7]) stood at 4 µM. In the data set with tubulin [2], the “Colchicine competition, Drug:Protein Ratio 1:1” value came out at 100 and the “Colchicine competition, Drug:Protein Ratio 10:1” value turned out to be 61.
As for `CO/C(=C\c1ccc(OC)c(O)c1)C(=O)c1cc(OC)c(OC)c(OC)c1` [DR13, (Z)-3-(3″-Hydroxy-4″-methoxyphenyl)-2-methoxy-1-(3′,4′,5′-timethoxyphenyl)-2-propen-1-one], the melting point lay within 120 to 122 °C. Also, the IC50 with tubulin [1] (setting [6]) stood at 2.6 µM. In addition, the IC50 in the data set with tubulin [1] (setting [7]) is 0.51 µM. For the same molecule, in the data set on tubulin [2], the “Colchicine competition, Drug:Protein Ratio 1:1” value is recorded as 12 and the “Colchicine competition, Drug:Protein Ratio 10:1” value turned out to be 5.
Consider `COc1ccc(C=CC(=O)c2ccc(OC)c(OC)c2OC)cc1O` [DR8, (E)-3-(3″-Hydroxy-4″-methoxyphenyl)-1-(2′,3′,4′-trimethoxyphenyl)-2-propen-1-one], for which the melting point lay within 85 to 86 °C. Besides, the IC50 in the data set on tubulin [1] (setting [6]) was 2.3 µM. For the same molecule, in the data set with tubulin [1] (setting [7]), the IC50 is 0.45 µM.
